What was measured:
RXF 393 [1] = conditions: RXF 393, Renal cancer; five-dose 0.01–100 µM
NCI-H23 = assay: cells; conditions: Homo sapiens
MDA-MB-231/ATCC [2] = assay: cells; conditions: Homo sapiens
RXF 393 [3] = assay: cells; conditions: Homo sapiens
CAKI-1 = conditions: CAKI-1, Renal cancer; five-dose 0.01–100 µM
UACC-257 = assay: cells; conditions: Homo sapiens
MALME-3M [4] = assay: cells; conditions: Homo sapiens
MDA-MB-468 = assay: cells; conditions: Homo sapiens
SR = assay: cells; conditions: Homo sapiens
HL-60(TB) [5] = assay: cells; conditions: Homo sapiens
SN12C = assay: cells; conditions: Homo sapiens
SK-MEL-5 [6] = conditions: SK-MEL-5, Melanoma; five-dose 0.01–100 µM
MDA-MB-231/ATCC [7] = conditions: Breast cancer, five-dose 0.01–100 µM
OVCAR-3 = assay: cells; conditions: Homo sapiens
HCT-15 = assay: cells; conditions: Homo sapiens
UO-31 [8] = conditions: UO-31, Renal cancer; five-dose 0.01–100 µM
COLO 205 = assay: cells; conditions: Homo sapiens
K-562 = conditions: K-562, Leukaemia; five-dose 0.01–100 µM
HCC-2998 = assay: cells; conditions: Homo sapiens
HT29 = assay: cells; conditions: Homo sapiens
CCRF-CEM = conditions: Leukaemia, five-dose 0.01–100 µM
MALME-3M [9] = conditions: Melanoma, five-dose 0.01–100 µM
DU-145 = conditions: DU-145, Prostate cancer; five-dose 0.01–100 µM
MOLT-4 = conditions: MOLT-4, Leukaemia; five-dose 0.01–100 µM
UO-31 [10] = assay: cells; conditions: Homo sapiens
SK-MEL-5 [11] = assay: cells; conditions: Homo sapiens
OVCAR-4 = conditions: OVCAR-4, Ovarian cancer; five-dose 0.01–100 µM
UACC-62 = conditions: UACC-62, Melanoma; five-dose 0.01–100 µM
NCI-H226 = assay: cells; conditions: Homo sapiens
HL-60(TB) [12] = conditions: Leukaemia, five-dose 0.01–100 µM
PC-3 = conditions: PC-3, Prostate cancer; five-dose 0.01–100 µM
M14 = assay: cells; conditions: Homo sapiens

For `CCOC(=O)CC[C@H](NC(=O)c1ccc(NC(=O)Cn2cnc3c(c(C)nn3-c3ccc(Br)cc3)c2=O)cc1)C(=O)OCC` [Compound 6i], the TGI (RXF 393 [1]) was 50.9 µM, the GI50 (NCI-H23; NCI-H23) was 7.64 µM and the CC50 (NCI-H23; NCI-H23, read-out: LC50) was 82.1 µM. The GI50 (MDA-MB-231/ATCC [2]; MDA-MB-231) was 11.5 µM, the CC50 (MDA-MB-231/ATCC [2]; MDA-MB-231, read-out: LC50) was 62.5 µM and the GI50 (RXF 393 [3]; RXF 393) was 15.9 µM. It also gave a CC50 (RXF 393 [3]; RXF 393, read-out: LC50) of over 100 µM, a TGI (CAKI-1) of 22.1 µM and a GI50 (UACC-257; UACC-257) of 31.5 µM. It also gave a CC50 (UACC-257; UACC-257, read-out: LC50) of over 100 µM, a GI50 (MALME-3M [4]) of 15 µM and a CC50 (MALME-3M [4]; read-out: LC50) of 59.4 µM. It also gave a GI50 (MDA-MB-468; MDA-MB-468) of 13.5 µM, a CC50 (MDA-MB-468; MDA-MB-468, read-out: LC50) of over 100 µM and a GI50 (SR) of 71 µM. It also gave a CC50 (SR; read-out: LC50) of over 100 µM, a GI50 (HL-60(TB) [5]; HL-60) of over 100 µM and a CC50 (HL-60(TB) [5]; HL-60, read-out: LC50) of over 100 µM. The GI50 (SN12C) was 29.2 µM, the CC50 (SN12C; read-out: LC50) was over 100 µM and the TGI (SK-MEL-5 [6]) was 43.1 µM. The TGI (MDA-MB-231/ATCC [7]) was 26.8 µM, the GI50 (OVCAR-3; OVCAR-3) was 11.7 µM and the CC50 (OVCAR-3; OVCAR-3, read-out: LC50) was over 100 µM. For the same compound, the GI50 (HCT-15; HCT-15) was 26 µM, the CC50 (HCT-15; HCT-15, read-out: LC50) was over 100 µM and the TGI (UO-31 [8]) was 55.9 µM. The GI50 (COLO 205; COLO 205) was 14 µM, the CC50 (COLO 205; COLO 205, read-out: LC50) was 96 µM and the TGI (K-562) was over 100 µM. It also gave a GI50 (HCC-2998; HCC 2998) of 35.1 µM, a CC50 (HCC-2998; HCC 2998, read-out: LC50) of over 100 µM and a GI50 (HT29; HT-29) of 18.4 µM. For the same compound, the CC50 (HT29; HT-29, read-out: LC50) was over 100 µM, the TGI (CCRF-CEM) was over 100 µM and the TGI (MALME-3M [9]) was 29.9 µM. The TGI (DU-145) was 28.8 µM, the TGI (MOLT-4) was over 100 µM and the GI50 (UO-31 [10]; UO-31) was 18.1 µM. The CC50 (UO-31 [10]; UO-31, read-out: LC50) was over 100 µM, the GI50 (SK-MEL-5 [11]; SK-MEL-5) was 19.4 µM and the CC50 (SK-MEL-5 [11]; SK-MEL-5, read-out: LC50) was 95.8 µM. It also gave a TGI (OVCAR-4) of 32.1 µM, a TGI (UACC-62) of 32.1 µM and a GI50 (NCI-H226) of 4.54 µM. The TGI (HL-60(TB) [12]) was over 100 µM, the TGI (full NCI 59 cell panel; HL-60(TB), CCRF-CEM, MOLT-4, K-562, SR, RPMI-8226, HCC-2998, HCT-15, HCT-116, KM12, U250, M14, UACC-257, OVCAR-8, SN12C, 786-0, T-47D, BT-549) was “more than 100 µM” and the “Full panel MG-MID” value (full NCI 59 cell panel; mean graph midpoint based on GI50, full NCI 59 cell panel) was 20.45 µM. It also gave a TGI (PC-3) of 19.4 µM, a GI50 (M14; M14) of over 100 µM and a CC50 (M14; M14, read-out: LC50) of over 100 µM.

— publication PMC10120551, “Novel Glu-based pyrazolo[3,4-d]pyrimidine analogues: design, synthesis and biological evaluation as DHFR and TS dual inhibitors” (Journal of Enzyme Inhibition and Medicinal Chemistry, 2023)
